In patent US20220306989A1, “CELL THERAPY METHODS” (Universität Basel, priority 2019, published 2022):
Numbered stars: 1 amine (or outer) side, 2 acyl side, 3 side chain; on linkers, the order of the positions; unused ones are H or OH. Bridge positions count the residues as written; N and C are the ends. Square brackets hold non-standard residues; d marks the D form. Peptide text beside a SMILES is read from it. I, II: the chains in the order shown. Actinocin(9to1) = Cc1c2oc3c(C)ccc(C(=O)[*:1])c3nc-2c(C(=O)[*:2])c(N)c1=O; NMeV = CN[C@H](C(=O)O)C(C)C; Sar = CNCC(=O)O

Columns and labels:
[1] = system: NV and CE NK cells; assay: IFN-γ measurement in human NK cells (bead-based immunoassay of supernatants); format: cell-based; details: IL-12/IL-18 stimulation 6 hours, 2-DG 10 mM pre-incubated 30 min
Method: (§1) Blood samples were obtained from healthy donors after written informed consent. Peripheral blood mononuclear cells were isolated by standard density-gradient centrifugation protocols (Lymphoprep; Fresenius Kabi). NK cells were negatively selected using EasySep negative NK cell isolation kit (Stemcell). Human NK cells were maintained in RPMI-1640 medium (Invitrogen) supplemented with 10% heat-inactivated human AB serum, 50 U/ml penicillin (Invitrogen) and 50 μg/ml streptomycin (Invitrogen) (R10AB). To generate CE NK cells, isolated NK cells were primed in R10AB containing IL-12 (10 ng/ml, R&D systems), IL-15 (1 ng/ml, PeproTech) and IL-18 (50 ng/ml, R&D systems) over-night. The next day cells were washed twice with PBS and maintained in R10AB containing IL-15 (1 ng/ml) until stimulation. Every 2-3 days 50% of the medium was replaced with fresh IL-IS (1 ng/ml). After 7 days cells were stimulated in R10AB containing IL-12 (10 ng/ml), IL-15 (1 ng/ml) and IL-18 (50 ng/ml) or with K562 leukemia targets (effector: target ratio, 5:1) for 6 hours. […]
NK cells were seeded in U-bottom 96 well plates (2×10^5 cells/well) using R10AB. […] Cell supernatants were harvested after stimulation and IFN-γ was measured using a human Th1 cytokine bead-based immunoassay (Legendplex, Biolegend) according to manufacturer's protocol.

[2] = system: NV and CE NK cells; assay: Quantitative real-time PCR of IFNG and TFRC mRNA in NK cells; format: cell-based, human
Method: as §1, with “ng/ml).” for “ng/ml). After 7 days cells were stimulated in R10AB containing IL-12 (10 ng/ml), IL-15 (1 ng/ml) and IL-18 (50 ng/ml) or with K562 leukemia targets (effector: target ratio, 5:1) for 6 hours.”
RNA was isolated from NK cells using Trizol (Thermo Fisher Scientific) and chloroform (Sigma-Aldrich) according to manufacturer's protocol, then purified with RNeasy RNA purification mini kit (QIAGEN, Germany). RNA concentration was determined using the NanoDrop 2000C (Thermo Fisher Scientific). […] Quantitative PCR for IFNG, TFRC and 18S mRNA was done in triplicate using commercially designed primers from Life Technologies (Hs00989291_m1, Hs00951083_m1, Hs03003631_g1). […]

[3] = system: NV and CE NK cells; assay: Flow cytometry of surface CD71 / CD69 on human NK cells; format: cell-based
Method: as §1
For surface staining NK cells were stained for 30 min at 4° C. with saturating concentrations of antibodies. […] Data were analyzed with Flowjo®_V10.5 (Tree Star, USA).

[4] = system: NV and CE NK cells; assay: Transferrin uptake assay (Tf-488); format: cell-based, human; details: IL-12/IL-18 + 2-DG treated NK cells
Method: as §1
NK cells were seeded in U-bottom 96-well plates (2×10^5 cells/well). […] Cells were resuspended in FACS buffer and analyzed by flow cytometry. […] Data were analyzed with Flowjo®_V10.5 (Tree Star, USA).

[5] = system: NV and CE NK cells; format: cell-based
Method: (§2) Blood samples were obtained from healthy donors after written informed consent. Peripheral blood mononuclear cells were isolated by standard density-gradient centrifugation protocols (Lymphoprep; Fresenius Kabi). NK cells were negatively selected using EasySep negative NK cell isolation kit (Stemcell). Human NK cells were maintained in RPMI-1640 medium (Invitrogen) supplemented with 10% heat-inactivated human AB serum, 50 U/ml penicillin (Invitrogen) and 50 μg/ml streptomycin (Invitrogen) (R10AB). To generate CE NK cells, isolated NK cells were primed in R10AB containing IL-12 (10 ng/ml, R&D systems), IL-15 (1 ng/ml, PeproTech) and IL-18 (50 ng/ml, R&D systems) over-night. The next day cells were washed twice with PBS and maintained in R10AB containing IL-15 (1 ng/ml) until stimulation. Every 2-3 days 50% of the medium was replaced with fresh IL-IS (1 ng/ml). After 7 days cells were stimulated in R10AB containing IL-12 (10 ng/ml), IL-15 (1 ng/ml) and IL-18 (50 ng/ml) or with K562 leukemia targets (effector: target ratio, 5:1) for 6 hours. When indicated, cells were pre-incubated with 2-deoxy-D-glucose (10 mM, Sigma-Aldrich), Actinomycin D (1 and 10 μM, Sigma-Aldrich), Cycloheximide (10 and 100 μg/ml, Sigma-Aldrich), 2,2′-Bipyridyl (1, 10, 50 and 100 μM, Sigma-Aldrich) or 6-aminonicotinamide (50 μM, Sigma-Aldrich) for 30 min and then stimulated in R10AB containing IL-12 (10 ng/ml), IL-1S (1 ng/ml) and IL-18 (50 ng/ml) for 6 hours.
For cell proliferation assays, NK cells were loaded prior to activation with the cell-proliferation dye CFSE (1 μM, Molecular probes, USA) and seeded in 96-well plates. Cells were washed twice and maintained in R10AB with IL-15 (1 ng/ml), when indicated in the presence of inhibitors. A fixable live-dead cell stain (Fixable Viability Dye, eBioscience or Zombie Aqua, Biolegend) was used to exclude dead cells prior to sample acquisition. CFSE dilution was analyzed 65 hours post-stimulation by flow cytometry. Samples were acquired using a BD AccuriC6 or a CytoFLEX flow cytometer (Beckman Coulter). Data were analyzed with Flowjo®_V 10.5 (Tree Star, USA).

[6] = system: NV and CE NK cells; assay: Immunoblot of total CD71, IRP1, IRP2 in human NK cells; format: cell-based; details: IL-12/IL-18 + ActD 1 and 10 μM or CHX 10 and 100 μg/ml
Method: as §2
Protein concentrations were determined by BCA protein assay kit (Thermo Fisher Scientific). Total cell lysates were separated using 4%-15% Mini Protean TGX Gel (Bio-Rad, Hercules Calif., USA), and transferred to nitrocellulose membranes using Trans-Blot Turbo Transfer (Bio-Rad, Hercules Calif., USA). […] Blots were stained with appropriate secondary antibodies and the odyssey imaging system (LICOR, Lincoln Nebr., USA) was used for visualization, and the ImageJ software (1.48v) for quantification.

Compound: O=CC[C@@H](O)[C@H](O)[C@H](O)CO [2-DG, 2-deoxy-d-glucose]
- IFN-γ secretion [1]: similarly reduced
- TFRC mRNA abundance ([2]; IL-12/IL-18 + 2-DG): similarly reduced
- IFNG mRNA abundance ([2]; IL-12/IL-18 stimulation 6 hours, 2-DG 10 mM pre-incubated 30 min): similarly reduced
- Cell surface expression of CD71 ([3]; IL-12/IL-18 + 2-DG, NV and CE NK cells): followed the same pattern
- transferrin uptake (Tf-488) [4]: reduced transferrin uptake

Compound: NC(=O)c1ccc(N)nc1 [6AN, 6-aminonicotinamide]
- expansion / proliferation of cytokine-stimulated NK cells (CFSE dilution) ([5]; IL-12/IL-18 + 6AN 50 μM, NV and CE NK cells): prevented expansion of cytokine-stimulated NK cells

Compound: Cc1c2oc3c(C)ccc(C(=O)N[C@@H]4C(=O)N[C@H](C(C)C)C(=O)N5CCC[C@H]5C(=O)N(C)CC(=O)N(C)[C@@H](C(C)C)C(=O)O[C@@H]4C)c3nc-2c(C(=O)N[C@@H]2C(=O)N[C@H](C(C)C)C(=O)N3CCC[C@H]3C(=O)N(C)CC(=O)N(C)[C@@H](C(C)C)C(=O)O[C@@H]2C)c(N)c1=O [Actinomcyin D, Actinomycin D] (I: T[dV]P[Sar][NMeV] / II: T[dV]P[Sar][NMeV]; ester I:1-I:C, II:1-II:C; linker I:N-II:N via Actinocin(9to1))
- stimulation-induced upregulation of CD71 (total CD71, Western blot) [6]: entirely prevented stimulation-induced upregulation of CD71
- stimulation-induced upregulation of CD71 (total CD71, Western blot) ([6]; listed as actinomycin): prevented stimulation-induced upregulation of CD71

Compound: c1ccc(-c2ccccn2)nc1 [BIP, 2,2′-bipyridyl]
- cell viability [5]: minimal effects on cell viability
- NK cell proliferation (CFSE dilution) ([5]; IL-12/IL-18 + BIP 1, 10 and 50 μM, NV and CE NK cells, 65 hours post-stimulation): inhibited NK cell proliferation in a dose-dependent manner
- NK cell activation as assessed by CD69 expression ([3]; IL-12/IL-18 + BIP 100 μM): no effect on NK cell activation

Compound: C[C@@H]1C[C@@H]([C@H](O)CC2CC(=O)NC(=O)C2)C(=O)[C@@H](C)C1 [cycloheximide]
- stimulation-induced upregulation of CD71 (total CD71, Western blot) [6]: entirely prevented stimulation-induced upregulation of CD71
